Among the data in ChEMBL document CHEMBL3769306, “Discovery of Molecular Therapeutics for Glaucoma: Challenges, Successes, and Promising Directions” (J Med Chem, 2016) are IC50, Ki and Kd values, retold here.

Molecules are shown by their SMILES.

Test [1] concerns the target T1, Rho-associated protein kinase 2 (Homo sapiens, UniProt O75116). Description: Inhibition of ROCK2 (unknown origin).
Test [2] concerns the target Rho-associated protein kinase 1 (Homo sapiens, UniProt Q13464). The test can be described thus: Inhibition of ROCK1 (unknown origin).
A further test has as its target T2, Adenosine receptor A3 (Homo sapiens, UniProt P0DMS8).
T2 sequence (P0DMS8 whole entry): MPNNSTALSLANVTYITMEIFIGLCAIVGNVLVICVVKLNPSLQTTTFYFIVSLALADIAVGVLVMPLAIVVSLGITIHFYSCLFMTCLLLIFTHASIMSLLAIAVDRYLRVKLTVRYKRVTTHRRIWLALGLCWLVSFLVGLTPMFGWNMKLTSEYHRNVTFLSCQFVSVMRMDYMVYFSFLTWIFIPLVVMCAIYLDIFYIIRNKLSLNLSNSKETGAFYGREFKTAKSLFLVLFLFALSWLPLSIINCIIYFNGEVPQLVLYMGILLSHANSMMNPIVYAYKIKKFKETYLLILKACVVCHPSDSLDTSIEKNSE
The test can be described thus: Antagonist activity at human adenosine A3 receptor.

The target of test [3] is T1, Rho-associated protein kinase 2. Description: Inhibition of ROCK2 (unknown origin) using STK2 as substrate after 1 hr.
Test [4] addresses T3, Adenosine receptor A2a (Homo sapiens, UniProt P29274). The test can be described thus: Displacement of [3H]-[…] from human recombinant adenosine A2A receptor. (Loss of bound radioactivity is the signal in a displacement assay; it reports binding, not function.)
The target in test [5] is T3, Adenosine receptor A2a. Description: Displacement of 2-[2-(4-amino-3-[125I]iodophenyl)ethylamino]adenosine from human recombinant adenosine A2A receptor expressed in HEK293 cells. Type of test: cell-based.

T1 sequence (O75116 whole entry): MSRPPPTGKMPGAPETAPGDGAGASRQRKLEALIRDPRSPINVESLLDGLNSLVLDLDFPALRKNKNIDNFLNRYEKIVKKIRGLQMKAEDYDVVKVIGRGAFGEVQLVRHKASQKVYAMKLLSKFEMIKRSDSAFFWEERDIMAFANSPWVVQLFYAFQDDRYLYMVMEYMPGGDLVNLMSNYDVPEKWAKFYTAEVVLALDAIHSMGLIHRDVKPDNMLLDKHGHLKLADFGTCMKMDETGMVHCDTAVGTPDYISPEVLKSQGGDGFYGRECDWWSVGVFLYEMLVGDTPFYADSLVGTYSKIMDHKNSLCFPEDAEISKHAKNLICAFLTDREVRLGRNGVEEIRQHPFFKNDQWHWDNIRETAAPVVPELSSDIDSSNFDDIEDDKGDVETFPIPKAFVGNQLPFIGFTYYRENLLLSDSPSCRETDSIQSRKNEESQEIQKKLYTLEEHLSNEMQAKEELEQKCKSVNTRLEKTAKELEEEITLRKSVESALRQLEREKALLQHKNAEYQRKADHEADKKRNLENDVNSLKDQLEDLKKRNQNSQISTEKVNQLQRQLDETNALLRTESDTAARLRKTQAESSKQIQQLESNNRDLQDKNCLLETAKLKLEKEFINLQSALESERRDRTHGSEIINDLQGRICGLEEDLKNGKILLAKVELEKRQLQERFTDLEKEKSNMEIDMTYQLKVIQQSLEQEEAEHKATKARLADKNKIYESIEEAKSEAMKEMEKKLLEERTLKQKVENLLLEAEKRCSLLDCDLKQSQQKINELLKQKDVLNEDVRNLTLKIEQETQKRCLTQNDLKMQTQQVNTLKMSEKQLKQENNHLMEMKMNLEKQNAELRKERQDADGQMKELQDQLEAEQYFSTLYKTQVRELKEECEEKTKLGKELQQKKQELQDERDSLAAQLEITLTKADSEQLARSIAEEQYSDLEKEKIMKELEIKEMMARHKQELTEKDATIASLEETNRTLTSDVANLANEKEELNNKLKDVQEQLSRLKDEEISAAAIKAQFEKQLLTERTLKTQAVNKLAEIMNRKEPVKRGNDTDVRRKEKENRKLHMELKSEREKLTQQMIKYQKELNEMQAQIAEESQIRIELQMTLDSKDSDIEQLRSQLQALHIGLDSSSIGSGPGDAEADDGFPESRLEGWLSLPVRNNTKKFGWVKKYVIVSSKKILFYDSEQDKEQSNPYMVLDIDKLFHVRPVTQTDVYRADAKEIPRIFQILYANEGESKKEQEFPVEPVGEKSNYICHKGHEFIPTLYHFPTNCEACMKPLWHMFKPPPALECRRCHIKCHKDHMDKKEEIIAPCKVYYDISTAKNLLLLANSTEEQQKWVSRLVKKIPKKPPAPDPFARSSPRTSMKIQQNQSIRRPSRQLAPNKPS
T3 sequence (P29274 whole entry): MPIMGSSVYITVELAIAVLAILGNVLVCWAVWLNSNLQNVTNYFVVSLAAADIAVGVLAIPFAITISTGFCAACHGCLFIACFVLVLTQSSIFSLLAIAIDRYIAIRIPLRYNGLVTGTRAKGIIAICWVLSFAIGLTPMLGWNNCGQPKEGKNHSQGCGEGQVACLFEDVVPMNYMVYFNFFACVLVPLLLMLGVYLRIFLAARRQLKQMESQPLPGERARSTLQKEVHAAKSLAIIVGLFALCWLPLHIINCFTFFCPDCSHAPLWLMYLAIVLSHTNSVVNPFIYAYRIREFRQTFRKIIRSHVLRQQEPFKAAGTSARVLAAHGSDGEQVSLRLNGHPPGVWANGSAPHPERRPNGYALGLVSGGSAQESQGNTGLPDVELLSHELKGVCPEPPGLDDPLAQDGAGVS
Rho-associated protein kinase 1, sequence (Q13464 whole entry): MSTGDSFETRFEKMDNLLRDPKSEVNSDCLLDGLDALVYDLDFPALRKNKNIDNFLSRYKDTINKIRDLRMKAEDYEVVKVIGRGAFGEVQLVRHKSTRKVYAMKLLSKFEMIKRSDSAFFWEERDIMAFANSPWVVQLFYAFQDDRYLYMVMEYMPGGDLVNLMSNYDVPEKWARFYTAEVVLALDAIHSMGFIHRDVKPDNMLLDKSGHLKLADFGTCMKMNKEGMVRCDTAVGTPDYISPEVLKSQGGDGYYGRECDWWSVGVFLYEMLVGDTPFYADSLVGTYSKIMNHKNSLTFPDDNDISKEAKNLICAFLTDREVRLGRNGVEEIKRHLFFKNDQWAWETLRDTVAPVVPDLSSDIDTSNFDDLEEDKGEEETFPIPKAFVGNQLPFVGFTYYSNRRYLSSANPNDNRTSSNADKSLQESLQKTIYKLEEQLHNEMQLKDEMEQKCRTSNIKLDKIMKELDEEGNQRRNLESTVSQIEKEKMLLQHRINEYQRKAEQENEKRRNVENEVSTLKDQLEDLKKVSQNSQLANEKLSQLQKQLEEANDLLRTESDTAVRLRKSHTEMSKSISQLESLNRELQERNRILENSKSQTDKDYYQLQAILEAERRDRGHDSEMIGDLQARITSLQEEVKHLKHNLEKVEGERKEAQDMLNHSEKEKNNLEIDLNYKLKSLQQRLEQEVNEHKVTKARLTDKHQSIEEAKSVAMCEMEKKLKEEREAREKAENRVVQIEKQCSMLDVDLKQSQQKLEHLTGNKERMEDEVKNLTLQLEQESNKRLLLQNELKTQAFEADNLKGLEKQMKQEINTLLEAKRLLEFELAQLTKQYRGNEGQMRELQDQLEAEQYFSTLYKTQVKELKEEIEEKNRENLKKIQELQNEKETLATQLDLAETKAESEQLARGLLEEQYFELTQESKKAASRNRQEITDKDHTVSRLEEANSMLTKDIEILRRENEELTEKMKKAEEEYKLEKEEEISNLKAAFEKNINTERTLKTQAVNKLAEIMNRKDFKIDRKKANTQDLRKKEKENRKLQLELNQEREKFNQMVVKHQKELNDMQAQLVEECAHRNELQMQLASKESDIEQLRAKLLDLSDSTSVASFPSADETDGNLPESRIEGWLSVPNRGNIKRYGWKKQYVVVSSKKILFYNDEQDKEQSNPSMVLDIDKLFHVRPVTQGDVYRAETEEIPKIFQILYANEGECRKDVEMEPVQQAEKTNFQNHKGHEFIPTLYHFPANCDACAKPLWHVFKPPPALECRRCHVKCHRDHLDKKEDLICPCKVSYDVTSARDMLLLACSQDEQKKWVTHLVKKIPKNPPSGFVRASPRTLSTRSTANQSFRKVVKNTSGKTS

Usually IC50 stands for the concentration that gives 50% inhibition. A lower IC50 goes with inhibition by little substance. As to `NCC(C(=O)Nc1ccc2cnccc2c1)c1ccccc1` (stereo not given), the figures for the IC50 in test [1] and in test [2] were 1.1 nM and 1.2 nM, respectively.
As a reminder, the Ki is a dissociation constant, usually derived from enzyme kinetics or from competition with a known ligand. With `CNC(=O)[C@H]1O[C@@H](n2cnc3c(NCc4cccc(I)c4)nc(Cl)nc32)[C@H](OC(C)=O)[C@@H]1OC(C)=O`, the affinity on Adenosine receptor A3 corresponds to a Ki of 910 nM.
In test [3], `CN(C)CCOc1cc(-c2cn[nH]c2)ccc1NC(=O)C1COc2ccccc2O1` (stereo not given) [SR-3677] gave a half-maximal inhibitory concentration (IC50) of 3 nM. This lies in the single-digit nanomolar range.
`C[C@H]1CNCCCN1S(=O)(=O)c1cccc2cncc(F)c12` displayed an IC50 in test [1] of 19 nM. In other words, the double-digit nanomolar range.
Turning to `NC(C(=O)Nc1ccc2cnccc2c1)c1ccccc1` (stereo not given), the IC50 is 1.5 nM in test [1] and 6 nM in test [2].
Take `N#CCCCCC#Cc1nc(N)c2ncn([C@@H]3O[C@H](CO)[C@@H](O)[C@H]3O)c2n1`: the Ki at Adenosine receptor A2a [4] amounted to 49.3 nM.
`CCCCCCC#Cc1nc(N)c2ncn([C@@H]3O[C@H](CO)[C@@H](O)[C@H]3O)c2n1`: the inhibition constant Ki on Adenosine receptor A2a [4] was 31.8 nM.
By Kd is commonly meant the free concentration of one partner at which half of the binding sites on the other are occupied at equilibrium, for simple one-to-one binding. For the compound `COC(=O)N1CCC(CC#Cc2nc(N)c3ncn([C@@H]4O[C@H](C(=O)NC5CC5)[C@@H](O)[C@H]4O)c3n2)CC1` [EVODENOSON], the equilibrium dissociation constant (Kd) at Adenosine receptor A2a [5] came to 0.7 nM.
